Experimental data as given in ChEMBL document CHEMBL4477247, “Computer-aided discovery of anti-HIV agents” (Bioorg Med Chem, 2016).
≈ marks a conversion by molar mass, not a printed value.

Legend:
[1] = system: Human immunodeficiency virus 1; test: Antiviral activity against HIV1 3B infected in human MT2 cells assessed as protection against viral infection by MTT method; format: functional, organism-based; conditions: Human immunodeficiency virus 1, 3B
[2] = system: Human immunodeficiency virus 1; test: Antiviral activity against HIV1 3B harboring reverse transcriptase Y181C mutant infected in human MT2 cells assessed as protection against viral infection by MTT method; format: functional, organism-based
[3] = system: Human immunodeficiency virus 1; test: Antiviral activity against HIV1 3B harboring reverse transcriptase K103N/Y181C double mutant infected in human MT2 cells assessed as protection against viral infection by MTT method; format: functional, organism-based
[4] = Cytotoxicity against human MT2 cells assessed as growth inhibition by MTT method; format: cell-based
[5] = Aqueous solubility of compound in pH 6.5 solution by shake flask method; format: physicochemical; conditions: aqueous solution pH 6.5, pH 6.5
[6] = Human immunodeficiency virus 1, 3B, MT2, read-out: EC50

| SMILES | EC50 [1] | CC50 [4] | EC50 [2, 6] | further results |
| --- | --- | --- | --- | --- |
| Cc1ccc(OCCn2ccc(=O)[nH]c2=O)c(Cc2ccccc2)c1 | 4.8 µM |  |  |  |
| COc1ccnc(Nc2ccc(Cl)c(Oc3ccccc3)c2)n1 | 2.5 µM |  |  |  |
| Cc1cc(Oc2ccccc2OCCn2ccc(=O)[nH]c2=O)c2cc(C#N)[nH]c2c1 | 0.01 µM |  |  | EC50 [2]: Not Active; EC50 [3, 6]: 0.8 µM |
| N#Cc1cc2c(Oc3ccccc3OCCn3ccc(=O)[nH]c3=O)cc(Cl)cc2o1 | 0.019 µM | > 100 µM | 1.9 µM | EC50 [3, 6]: 0.26 µM |
| N#Cc1cc2c(Oc3ccccc3OCCn3ccc(=O)[nH]c3=O)cccn2c1 | 0.00038 µM | > 100 µM | 0.31 µM | EC50 [3, 6]: 0.011 µM |
| N#Cc1ccc2c(Oc3ccccc3OCCn3ccc(=O)[nH]c3=O)cc(F)cc2c1 |  |  |  | solubility thermodynamic [5]: 9.1 µg/mL (≈ 21.8 µM) |
| N#Cc1ccc2c(Oc3ccc(F)cc3OCCn3ccc(=O)[nH]c3=O)cc(F)cc2c1 |  |  |  | solubility thermodynamic [5]: 82.9 µg/mL (≈ 190 µM) |
| CSc1ccnc(Nc2ccc(C#N)c(Oc3cccc(/C=C/C#N)c3)c2)n1 | 0.048 µM | 1.2 µM | 0.25 µM |  |
| CC(C)=CCOc1cc(Nc2ncnc3occc23)ccc1Cl | 0.005 µM | 17 µM |  |  |
| CC(C)=CCOc1cc(Nc2nccn3cccc23)ccc1Cl | 0.019 µM | 20 µM |  |  |
| CC(C)=CCOc1cc(Nc2nccc3cccn23)ccc1Cl | 0.13 µM | 17 µM |  |  |
| Cc1cc(/C=C/C#N)cc(Oc2cc(Nc3ncnc(C4CC4)n3)ccc2C)c1 | 0.0017 µM |  | 0.015 µM |  |
| Cc1cc(/C=C/C#N)cc(Oc2cc(Nc3ncnc(C4CC4)n3)ccc2Cl)c1 |  |  | 0.0049 µM |  |
| CC(C)=CCOc1cc(Nc2nccc3cc[nH]c23)ccc1Cl | 0.9 µM | 9.2 µM |  |  |
| Cc1ccnc2c1NC(=O)c1cccnc1N2C1CC1 [NEVIRAPINE] |  | > 100 µM |  | EC50 [2]: Not Active; EC50 [3]: Not Active |
